Experimental data as given in PMC9492777, “Reaction-based fluorogenic probes for detecting protein cysteine oxidation in living cells” (Nature Communications, 2022).

Biological target: EGFR (epidermal growth factor receptor) (Homo sapiens, UniProt P00533)
Assay: labelling in transfected HeLa cells, immunoprecipitation, in-gel fluorescence
Type: cell-based
Conditions: covalent, at Cys797 sulfenic acid; 50 uM probe, 500 uM H2O2, 1 h, 37 °C

Chain of EGFR (epidermal growth factor receptor) (P00533 25-1210): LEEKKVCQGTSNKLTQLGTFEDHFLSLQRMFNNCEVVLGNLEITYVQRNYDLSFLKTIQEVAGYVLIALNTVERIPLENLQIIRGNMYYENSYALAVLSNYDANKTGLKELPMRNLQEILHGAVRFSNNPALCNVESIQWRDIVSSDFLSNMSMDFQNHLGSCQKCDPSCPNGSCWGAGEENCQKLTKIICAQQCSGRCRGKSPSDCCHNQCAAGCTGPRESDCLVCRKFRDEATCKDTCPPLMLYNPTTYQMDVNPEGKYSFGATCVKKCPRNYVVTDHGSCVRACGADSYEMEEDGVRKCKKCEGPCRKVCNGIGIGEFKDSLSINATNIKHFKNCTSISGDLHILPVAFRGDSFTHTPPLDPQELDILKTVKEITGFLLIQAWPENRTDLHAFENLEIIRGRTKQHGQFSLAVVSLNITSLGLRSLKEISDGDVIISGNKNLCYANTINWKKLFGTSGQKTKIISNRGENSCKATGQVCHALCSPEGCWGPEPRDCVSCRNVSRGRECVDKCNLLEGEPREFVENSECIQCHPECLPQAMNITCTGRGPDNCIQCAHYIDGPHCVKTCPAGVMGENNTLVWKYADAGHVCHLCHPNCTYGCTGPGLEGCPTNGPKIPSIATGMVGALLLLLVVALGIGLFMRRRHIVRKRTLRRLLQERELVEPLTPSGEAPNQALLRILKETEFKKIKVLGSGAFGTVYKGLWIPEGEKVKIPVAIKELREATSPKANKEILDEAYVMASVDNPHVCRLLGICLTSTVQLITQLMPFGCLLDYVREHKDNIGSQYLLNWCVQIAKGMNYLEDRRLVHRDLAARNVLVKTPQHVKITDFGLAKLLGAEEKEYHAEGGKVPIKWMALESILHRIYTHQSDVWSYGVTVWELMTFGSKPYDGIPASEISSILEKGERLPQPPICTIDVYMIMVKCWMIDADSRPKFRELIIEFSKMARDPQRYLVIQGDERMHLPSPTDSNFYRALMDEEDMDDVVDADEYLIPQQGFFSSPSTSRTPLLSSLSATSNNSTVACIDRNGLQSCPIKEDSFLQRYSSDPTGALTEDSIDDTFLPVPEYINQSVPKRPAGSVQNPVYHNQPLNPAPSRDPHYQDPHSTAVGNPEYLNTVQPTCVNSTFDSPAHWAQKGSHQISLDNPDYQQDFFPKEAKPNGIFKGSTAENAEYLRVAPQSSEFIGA

## Nc1c(F)cc2c3c(cccc13)C(=O)CS2(=O)=O [compound 7, CysOx1]
  labelling in transfected HeLa cells, immunoprecipitation, in-gel fluorescence: Wild-type EGFR exhibited detectable fluorescence signal from CysOx1 or CysOx2

## O=C1CS(=O)(=O)c2cc(F)c(N3CCC3)c3cccc1c23 [compound 8, CysOx2]
  labelling in transfected HeLa cells, immunoprecipitation, in-gel fluorescence: Wild-type EGFR exhibited detectable fluorescence signal from CysOx1 or CysOx2
